Reference: patent US8445505B2 (IRM LLC, priority 2008, dated 2013)

Molecular target: IGF1R Ba/F3 (Homo sapiens, UniProt P08069)
Assay: Ba/F3 Cell Viability Inhibition Assay (Tel-TK transformed Ba/F3 lines)
Format: cell-based, murine
Design: the printed alternative
Settings: Tel-TK (IGF1R) transformed Ba/F3 cells, 48 hours incubation, cell viability (Britelite luminescence)
From the text: Ba/F3 is a murine IL-3-dependent pro-B lymphoma cell line. Parental Ba/F3 cells are used to generate a panel of sublines whose proliferation and survival is rendered IL-3-independent by stable transduction with individual tyrosine kinases activated by fusion with the amino-terminal portion of TEL (amino acid 1-375) or BCR. In order to generate Ba/F3 cell lines transformed by Tel-Tyrosine Kinase (TK) fusions, parental Ba/F3 cells are infected with a retrovirus harboring each TEL-fusion kinase and subjected to puromycin selection and IL-3 withdrawal to obtain IL-3-independent, transformed Ba/F3 cells.
Each transformed Ba/F3 cells are cultured in RPMI-1640 media (Gibco Cat #11875093, Carlsbad, Calif.) supplemented with 10% FBS (Hyclone Cat #SV30014.03, Logan, Utah), 4.5 g/L glucose (Sigma #G5400, St.Louis, Mo.), 1.5 g/L sodium bicarbonate (Biowhittaker #17-613E, Walkersville, Md.) and Pen/Strep (Gibco #10378-016, Carlsbad, Calif.). Cells are splitted twice weekly.
The potency of test compounds against various Tel-TK transformed Ba/F3 lines is determined as follows. Exponentially growing BaF3 Tel-TK cells are diluted in fresh medium to 75,000 cells/mL and seeded into 384-well plates (3750 cells/well) at 50 μL/well using a gill liquid dispenser (BioTek, Winooski, Vt., USA). Duplicate plates are run for each cell line. Test and control compounds are serially diluted with DMSO and arrayed in a polypropylene 384-well plate. 50 nL of compound is transferred into the assay plates using a pin-transfer device, and the plates are incubated at 37° C. (5% CO2) for 48 hours. 25 μL Britelite (Perkin Elmer) is added and luminescence is quantified using Analyst GT (Molecular Devices). Custom curve-fitting software is used to produce a logistic fit of percent cell viability as a function of the logarithm of inhibitor concentration. The IC50 is interpolated as the concentration of compound needed to reduce cell viability to 50% of a DMSO control. Parental Ba/F3 cells that are maintained and cultured in presence of IL-3 (1 ng/ml in final) are diluted in fresh medium containing IL-3 (1 ng/ml in final) to 75,000 cells/mL following the same procedure as described above.

Chain of IGF1R Ba/F3 (P08069 999-1274 limits assumed): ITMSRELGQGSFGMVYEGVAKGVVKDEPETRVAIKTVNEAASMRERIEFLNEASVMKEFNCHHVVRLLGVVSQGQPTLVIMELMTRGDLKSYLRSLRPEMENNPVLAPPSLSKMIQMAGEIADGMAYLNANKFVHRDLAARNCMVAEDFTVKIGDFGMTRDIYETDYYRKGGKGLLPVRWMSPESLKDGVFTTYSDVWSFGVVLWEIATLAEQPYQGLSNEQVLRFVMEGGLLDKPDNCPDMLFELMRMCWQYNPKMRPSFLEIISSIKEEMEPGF

Structure (SMILES) | IC50 [nM]
Cc1cc(Nc2nc(Nc3cc(C)c([C@H]4CC[C@@H](N5CC[C@H](O)C5)CC4)cc3F)ncc2Cl)n[nH]1 [Compound 54, (S)-1-((Cis)-4-(4-(5-chloro-4-(5-methyl-1H-pyrazol-3-ylamino)pyrimidin-2-ylamino)-5-fluoro-2-methylphenyl)cyclohexyl)pyrrolidin-3-ol] | 16
Cc1cc(Nc2nc(Nc3cc(C)c(-c4ccsc4)cc3F)ncc2Cl)n[nH]1 [Compound 10, 5-chloro-N2-(2-fluoro-5-methyl-4-(thiophen-3-yl)phenyl)-N4-(5-methyl-1H-pyrazol-3-yl)pyrimidine-2,4-diamine] | 833
C/C(=N\O)c1cc(C)c(Nc2ncc(Cl)c(Nc3cc(C)[nH]n3)n2)cc1C [Compound 29, 1-(4-(5-chloro-4-(5-methyl-1H-pyrazol-3-ylamino)pyrimidin-2-ylamino)-2,5-dimethylphenyl)ethanone oxime] | 51
Cc1cc(Nc2nc(Nc3cc(C)c([C@H]4CC[C@H](N5CCOCC5)CC4)cc3C)ncc2C(F)(F)F)n[nH]1 [Compound 67, N^2-(2,5-dimethyl-4-(trans-4-morpholinocyclohexyl)phenyl)-N^4-(5-methyl-1H-pyrazol-3-yl)-5-(trifluoromethyl)pyrimidine-2,4-diamine] | 9
Cc1cc(Nc2nc(Nc3cc(C)c([C@H]4CC[C@H](N5CCCCC5)CC4)cc3C)ncc2Cl)n[nH]1 [Compound 44, Trans-5-chloro-N2-(2,5-dimethyl-4-(4-(piperidin-1-yl)cyclohexyl)phenyl)-N4-(5-methyl-1H-pyrazol-3-yl)pyrimidine-2,4-diamine] | 7
Cc1cc(Nc2nc(Nc3cc(C)c(-c4ccoc4)cc3F)ncc2Cl)n[nH]1 [Compound 11, 5-chloro-N2-(2-fluoro-4-(furan-3-yl)-5-methylphenyl)-N4-(5-methyl-1H-pyrazol-3-yl)pyrimidine-2,4-diamine] | 683
Cc1cc(Nc2nc(Nc3cc(C)c([C@H]4CC[C@@H](N5CCN(C)CC5)CC4)cc3F)ncc2Cl)n[nH]1 [Compound 52, Cis-5-chloro-N2-(2-fluoro-5-methyl-4-(4-(4-methylpiperazin-1-yl)cyclohexyl)phenyl)-N4-(5-methyl-1H-pyrazol-3-yl)pyrimidine-2,4-diamine] | 24
Cc1cc(Nc2nc(Nc3cc(C)c([C@H]4CC[C@@H](O)CC4)cc3C)ncc2C(F)(F)F)n[nH]1 [Compound 42, cis-4-(2,5-dimethyl-4-(4-(5-methyl-1H-pyrazol-3-ylamino)-5-(trifluoromethyl)pyrimidin-2-ylamino)phenyl)cyclohexanol] | 53
Cc1cc(Nc2nc(Nc3cc(C)c([C@H]4CC[C@@H](N5CCCCC5)CC4)cc3F)ncc2Cl)n[nH]1 [Compound 48, Cis-5-chloro-N2-(2-fluoro-5-methyl-4-(4-(piperidin-1-yl)cyclohexyl)phenyl)-N4-(5-methyl-1H-pyrazol-3-yl)pyrimidine-2,4-diamine] | 21
Cc1cc(Nc2nc(Nc3cc(C)c([C@H]4CC[C@@H](N5CCCCC5)CC4)cc3F)ncc2C(F)(F)F)n[nH]1 [Compound 62, N^2-(2-fluoro-5-methyl-4-(cis-4-(piperidin-1-yl)cyclohexyl)phenyl)-N^4-(5-methyl-1H-pyrazol-3-yl)-5-(trifluoromethyl)pyrimidine-2,4-diamine] | 18
Cc1cc(Nc2nc(Nc3cc(C)c(C(=O)N(C)C)cc3C)ncc2Cl)n[nH]1 [Compound 30, 4-(5-chloro-4-(5-methyl-1H-pyrazol-3-ylamino)pyrimidin-2-ylamino)-N,N,2,5-tetramethylbenzamide] | 539
CCN1CCc2ccc(Nc3ncc(Cl)c(Nc4cc(C)[nH]n4)n3)cc2CC1 [Compound 89] | 88
Cc1cc(Nc2nc(Nc3cc(C)c(C(=O)NCCN(C)C)cc3C)ncc2Cl)n[nH]1 [Compound 31, 4-(5-chloro-4-(5-methyl-1H-pyrazol-3-ylamino)pyrimidin-2-ylamino)-N-(2-(dimethylamino)ethyl)-2,5-dimethylbenzamide] | 659
C/C(=N\OCCN1CCOCC1)c1cc(C)c(Nc2ncc(Cl)c(Nc3cc(C)[nH]n3)n2)cc1C [Compound 36, 1-(4-(5-chloro-4-(5-methyl-1H-pyrazol-3-ylamino)pyrimidin-2-ylamino)-2,5-dimethylphenyl)ethanone O-2-morpholinoethyl oxime] | 187
Cc1cc(Nc2nc(Nc3cc(C)c(C4CCC(=NO)CC4)cc3C)ncc2Cl)n[nH]1 (stereo not shown) [Compound 33, 4-(4-(5-chloro-4-(5-methyl-1H-pyrazol-3-ylamino)pyrimidin-2-ylamino)-2,5-dimethylphenyl)cyclohexanone oxime] | 15
Cc1cc(Nc2nc(Nc3cc(C)c(-c4cnc5ccccc5c4)cc3F)ncc2Cl)n[nH]1 [Compound 7, 5-chloro-N2-(2-fluoro-5-methyl-4-(quinolin-3-yl)phenyl)-N4-(5-methyl-1H-pyrazol-3-yl)pyrimidine-2,4-diamine] | 579
Cc1ccc(-c2cc(F)c(Nc3ncc(Cl)c(Nc4cc(C)[nH]n4)n3)cc2C)cn1 [Compound 5, 5-chloro-N2-(2-fluoro-5-methyl-4-(6-methylpyridin-3-yl)phenyl)-N4-(5-methyl-1H-pyrazol-3-yl)pyrimidine-2,4-diamine] | 137
Cc1cc(Nc2nc(Nc3cc(C)c([C@H]4CC[C@H](N5CCN(C)CC5)CC4)cc3F)ncc2Cl)[nH]n1 [Compound 53, Trans-5-chloro-N2-(2-fluoro-5-methyl-4-(4-(4-methylpiperazin-1-yl)cyclohexyl)phenyl)-N4-(5-methyl-1H-pyrazol-3-yl)pyrimidine-2,4-diamine] | 25
Cc1cc2c(Nc3ncc(Cl)c(Nc4cc(C)[nH]n4)n3)cccc2nn1 [Compound 83, 5-chloro-N4-(5-methyl-1H-pyrazol-3-yl)-N2-(3-methylcinnolin-5-yl)pyrimidine-2,4-diamine] | 1450
Cc1cc(Nc2nc(Nc3ccc(C4CCNCC4)c4ccccc34)ncc2Cl)n[nH]1 [Compound 85, 5-chloro-N^4-(5-methyl-1H-pyrazol-3-yl)-N^2-(4-(piperidin-4-yl)naphthalene-1-yl)pyrimidine-2,4-diamine] | 493
Cc1cc(Nc2nc(Nc3ccc(C4CCN(CC(N)=O)CC4)c4ccncc34)ncc2Cl)n[nH]1 [Compound 77, 2-(4-(8-(5-chloro-4-(5-methyl-1H-pyrazol-3-ylamino)pyrimidin-2-ylamino)isoquinolin-5-yl)piperidin-1-yl)acetamide] | 3300
Cc1cc(Nc2nc(Nc3cc(C)c(-c4ccncc4)cc3F)ncc2Cl)n[nH]1 [Compound 2, 5-chloro-N2-(2-fluoro-5-methyl-4-(pyridin-4-yl)phenyl)-N4-(5-methyl-1H-pyrazol-3-yl)pyrimidine-2,4-diamine] | 103
Cc1cc(Nc2nc(Nc3cc(C)c(-c4cnn(C)c4)cc3C)ncc2Cl)n[nH]1 [Compound 12, 5-chloro-N2-(2,5-dimethyl-4-(1-methyl-1H-pyrazol-4-yl)phenyl)-N4-(5-methyl-1H-pyrazol-3-yl)pyrimidine-2,4-diamine] | 25
Cc1cc(Nc2nc(Nc3cc(C)c(-c4cnn(C)c4)cc3F)ncc2Cl)n[nH]1 [Compound 1, 5-chloro-N2-(2-fluoro-5-methyl-4-(1-methyl-1H-pyrazol-4-yl)phenyl)-N4-(5-methyl-1H-pyrazol-3-yl)pyrimidine-2,4-diamine] | 67
COc1cc(-c2cnco2)c(C)cc1Nc1ncc(Cl)c(Nc2cc(C)[nH]n2)n1 [Compound 21, 5-chloro-N2-(2-methoxy-5-methyl-4-(oxazol-5-yl)phenyl)-N4-(5-methyl-1H-pyrazol-3-yl)pyrimidine-2,4-diamine] | 169
O=C1NCc2cc(F)c(Nc3ncc(Cl)c(Nc4cc(C5CC5)[nH]n4)n3)cc21 [Compound 81, 6-(5-chloro-4-(5-cyclopropyl-1H-pyrazol-3-ylamino)pyrimidin-2-ylamino)-5-fluoroisoindolin-1-one] | 2300
Cc1cc(Nc2nc(Nc3ccc(C4CCN(CCS(C)(=O)=O)CC4)c4cccnc34)ncc2Cl)n[nH]1 [Compound 78, 5-chloro-N4-(5-methyl-1H-pyrazol-3-yl)-N2-(5-(1-(2-(methylsulfonyl)ethyl)piperidin-4-yl)quinolin-8-yl)pyrimidine-2,4-diamine] | 412
Cc1cc(Nc2nc(Nc3cc(C)c([C@H]4CC[C@@H](N5CCOCC5)CC4)cc3F)ncc2Cl)n[nH]1 [Compound 51, Cis-5-chloro-N2-(2-fluoro-5-methyl-4-(4-morpholinocyclohexyl)phenyl)-N4-(5-methyl-1H-pyrazol-3-yl)pyrimidine-2,4-diamine] | 400
